In patent US12559529B2, “NPY2 receptor agonists” (Boehringer Ingelheim International GmbH, priority 2019, dated 2026):
*1 amine or outer side, *2 acyl side, *3 side chain or, on linkers, in order; H or OH if unused. Where a SMILES comes first, the peptide text is derived from it. Side-chain parts run from the residue outwards. The star is where a group is joined. C18 diacid = O=C(O)CCCCCCCCCCCCCCCCC(=O)*; γGlu = O=C(O)[C@H](CCC(=O)[*:2])N[*:1]; Isovaleryl = CC(C)CC(=O)*; AEEA = NCCOCCOCC(=O)O

Key:
[1] = biological target: T1, Human Neuropeptide Y2 Receptor (Homo sapiens, UniProt P49146); assay: Radioligand binding competition assay (RLB)
T1 construct: purchased CHEMICON HTS066M
T1 sequence (P49146 1-381): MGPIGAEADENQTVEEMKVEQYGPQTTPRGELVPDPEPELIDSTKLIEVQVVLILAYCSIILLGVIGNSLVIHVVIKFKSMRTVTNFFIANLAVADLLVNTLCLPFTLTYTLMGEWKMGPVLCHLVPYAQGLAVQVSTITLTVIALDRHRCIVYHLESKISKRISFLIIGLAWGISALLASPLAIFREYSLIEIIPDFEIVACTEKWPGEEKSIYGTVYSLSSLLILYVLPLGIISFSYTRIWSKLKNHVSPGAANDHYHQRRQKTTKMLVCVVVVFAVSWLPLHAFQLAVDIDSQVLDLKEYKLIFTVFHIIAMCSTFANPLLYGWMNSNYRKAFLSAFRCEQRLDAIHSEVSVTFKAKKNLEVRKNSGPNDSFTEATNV
How it was run: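 Membranes (0.5 μg/well) and test peptides, serially diluted from 1 mM DMSO stocks, were incubated 2 hours at room temperature in HEPES buffer pH 7.4 with Mg, Ca and ovalbumin.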

[2] = biological target: T1, Human Neuropeptide Y2 Receptor; assay: Activity (RLB) after incubation in solutions at different pH values; assay type: binding; conditions: apparent Ki of filtrate after 2 h in buffer
Protocol: The filtration RLB assay was carried out in 96-well plates in a final volume of 100 μl per well. Freeze-dried test peptides were dissolved in 100% dimethyl sulfoxide (DMSO) to stock solutions of 1 mM and serial dilutions were performed in assay buffer (50 mM HEPES, 5 mM MgCl2, 1 mM CaCl2), pH 7.4) containing 0.2% ovalbumin. […] Next, 80 μL membranes (HTS066M, ChemiSCREEN™ Human Neuropeptide Y2 Receptor Membrane Preparation, CHEMICON) were added to each well to give a final protein concentration of 0.5 μg/well. The plates were sealed and incubated at room temperature for 2 hours in a plate shaker set at 400 rpm. The incubation was stopped by vacuum filtration onto 0.5% poly-ethylene amine (PEI) presoaked GF/C filters using a 96-well FilterMate™ harvester (Perkin Elmer) followed by four washes with 300 μl/well ice-cold wash buffer (50 mM HEPES, 500 mM NaCl, pH7.4). Filter plates were then dried for 60 min at room temperature and the bottom of the plates was sealed with backing tape UniFilter-96. Finally, 50 μl/well scintillation counter cocktail (Microscint20, Packard) was added and the radioactivity was counted in the Packard TopCount NXT scintillation counter. IC50 values (the half maximal inhibitory concentration of the agonist) were calculated by nonlinear regression analysis of sigmoidal dose-response curves.
Peptides (as TFA salts) were weighed out in a filter unit (Mini-UniPrep Syringeless Filter 0.45 μm, Whatman), and 0.1 M sodium diphosphate buffer at pH 6.4 or 7.4, respectively, or 0.2 M TRIS buffer at pH 8.3 was added to achieve 10 mg/ml final concentration. The peptide was (partially) dissolved by shaking the filter unit horizontally at approx. 400 rpm for 2 hours at room temperature. The sample was filtered to remove any insoluble particles.

[3] = test system: normal NMRI mice; assay: Effect on acute food intake in normal NMRI mice; assay type: in vivo; conditions: male NMRI mice, 10 nmol/kg subcutaneously once
How it was run: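 Male NMRI mice acclimatized in an HM-2 real-time food intake monitoring system, fasted 6 h before dark phase. Single subcutaneous dose of 10 nmol/kg peptide given 1 h before dark; n=7-8. Food intake expressed as % of vehicle group (50 mM phosphate pH7, 5% Mannitol).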

[4] = Table 3, human 125I-PYY (1-36) 0.02 nM, Y2 receptor membranes, read-out: Ki

Row | Ki [1, 4] | Ki ([1]; Table 8, from DMSO stock, read-out: hY2R RLB Ki (nM) DMSO) | Ki ([2]; pH6.1-6.2, assumed 10 mg/ml, read-out: RLB 6 (pH6.1-6.2)) | Ki ([2]; pH7.1-7.2, assumed 10 mg/ml, read-out: RLB 7 (pH7.1-7.2)) | Ki ([2]; pH8.1-8.2, assumed 10 mg/ml, read-out: RLB 8 (pH8.1-8.2)) | SMILES | Acute Food Intake 24 h [% vehicle] [3]
1 | 0.29 nM | 4.6 nM | 3.8 nM | 4.4 nM | 2.3 nM | CC(C)CC(=O)N[C@@H](C)C(=O)N1CCC[C@H]1C(=O)N[C@@H](CCC(=O)O)C(=O)N[C@@H](CCCCNC(=O)COCCOCCNC(=O)COCCOCCNC(=O)CC[C@H](NC(=O)CCCCCCCCCCCCCCCCC(=O)O)C(=O)O)C(=O)N1CCC[C@H]1C(=O)N[C@@H](CCC(=O)O)C(=O)N[C@@H](C)C(=O)N1CCC[C@H]1C(=O)N[C@@H](C)C(=O)N[C@@H](CO)C(=O)N1CCC[C@H]1C(=O)N[C@@H](CCC(=O)O)C(=O)N[C@@H](CCC(=O)O)C(=O)N[C@@H](CC(C)C)C(=O)N[C@@H](CCC(N)=O)C(=O)N[C@@H](CCCNC(=N)N)C(=O)N[C@@H](Cc1ccc(O)cc1)C(=O)N[C@@H](Cc1ccc(O)cc1)C(=O)N[C@H](C(=O)N[C@@H](CCC(=O)O)C(=O)N[C@@H](CC(C)C)C(=O)N[C@@H](CCCNC(=N)N)C(=O)N[C@@H](Cc1c[nH]cn1)C(=O)N[C@@H](Cc1ccc(O)cc1)C(=O)N[C@@H](Cc1ccc(O)cc1)C(=O)N[C@@H](CC(N)=O)C(=O)N[C@@H](Cc1c[nH]c2ccccc12)C(=O)N[C@@H](CC(C)C)C(=O)N[C@H](C(=O)N[C@@H](CCCNC(=N)N)C(=O)N[C@@H](CCC(N)=O)C(=O)N[C@@H](CCCNC(=N)N)C(=O)N[C@@H](Cc1ccc(O)cc1)C(N)=O)[C@@H](C)O)C(C)C [Compound 29, N{alpha-4}-(3-methylbutanoyl)-N{epsilon-7}-[2-(2-{2-[2-(2-{2-[(4S)-4-carboxy-4-(17-carboxyheptadecanamido)butanamido]ethoxy}ethoxy)acetamido]ethoxy}ethoxy)acetamido]-[4A,7K,9E,10A,11P,18Q,22V,23E,28Y,30W,31L]hPYY (4-36)] (Isovaleryl-APEK([AEEA-AEEA-γGlu-C18 diacid])PEAPASPEELQRYYVELRHYYNWLTRQRY-NH2) | 
2 | 8.07 nM |  |  |  |  | CC(C)CC(=O)N[C@@H](C)C(=O)N1CCC[C@H]1C(=O)N[C@@H](CCC(=O)O)C(=O)N[C@@H](CCCCNC(=O)COCCOCCNC(=O)COCCOCCNC(=O)CC[C@H](NC(=O)CCCCCCCCCCCCCCCCC(=O)O)C(=O)O)C(=O)N1CCC[C@H]1C(=O)N[C@@H](CCC(=O)O)C(=O)N[C@@H](CCC(=O)O)C(=O)N[C@@H](CC(=O)O)C(=O)N[C@@H](CO)C(=O)N[C@@H](CCC(=O)O)C(=O)N1CCC[C@H]1C(=O)N[C@@H](CCC(=O)O)C(=O)N[C@@H](CCC(=O)O)C(=O)N[C@@H](CC(C)C)C(=O)N[C@@H](CCC(N)=O)C(=O)N[C@@H](CCCNC(=N)N)C(=O)N[C@@H](Cc1ccc(O)cc1)C(=O)N[C@@H](Cc1ccc(O)cc1)C(=O)N[C@H](C(=O)N[C@@H](CO)C(=O)N[C@@H](CC(C)C)C(=O)N[C@@H](CCCNC(=N)N)C(=O)N[C@@H](Cc1c[nH]cn1)C(=O)N[C@@H](Cc1ccc(O)cc1)C(=O)N[C@@H](Cc1ccc(O)cc1)C(=O)N[C@@H](CC(N)=O)C(=O)N[C@@H](Cc1c[nH]c2ccccc12)C(=O)N[C@@H](CC(C)C)C(=O)N[C@H](C(=O)N[C@@H](CCCNC(=N)N)C(=O)N[C@@H](CCC(N)=O)C(=O)N[C@@H](CCCNC(=N)N)C(=O)N[C@@H](Cc1ccc(O)cc1)C(N)=O)[C@@H](C)O)C(C)C [Compound 209, N{alpha-4}-(3-methylbutanoyl)-N{epsilon-7}-[2-(2-{2-[2-(2-{2-[(4S)-4-carboxy-4-(17-carboxyheptadecanamido)butanamido]ethoxy}ethoxy)acetamido]ethoxy}ethoxy)acetamido]-[4A,7K,9E,12S,13E,18Q,22V,28Y,30W,31L]hPYY (4-36)] | 50 % vehicle
3 | 2.95 nM |  |  |  |  | CC[C@H](C)[C@H](NC(=O)[C@H](CCC(=O)O)NC(=O)[C@H](CCC(=O)O)NC(=O)[C@@H]1CCCN1C(=O)[C@H](CO)NC(=O)[C@H](C)NC(=O)[C@H](CCC(=O)O)NC(=O)[C@H](CCC(=O)O)NC(=O)[C@H](CCC(=O)O)NC(=O)[C@@H]1CCCN1C(=O)[C@H](CCCCNC(=O)COCCOCCNC(=O)COCCOCCNC(=O)CC[C@H](NC(=O)CCCCCCCCCCCCCCCCC(=O)O)C(=O)O)NC(=O)[C@H](CCC(=O)O)NC(=O)[C@@H]1CCCN1C(=O)[C@H](C)NC(=O)CC(C)C)C(=O)N[C@@H](CCC(N)=O)C(=O)N[C@@H](CCCNC(=N)N)C(=O)N[C@@H](Cc1ccc(O)cc1)C(=O)N[C@@H](Cc1ccc(O)cc1)C(=O)N[C@H](C(=O)N[C@@H](CO)C(=O)N[C@@H](CC(C)C)C(=O)N[C@@H](CCCNC(=N)N)C(=O)N[C@@H](Cc1c[nH]cn1)C(=O)N[C@@H](Cc1ccc(O)cc1)C(=O)N[C@@H](Cc1ccc(O)cc1)C(=O)N[C@@H](CC(N)=O)C(=O)N[C@@H](Cc1c[nH]c2ccccc12)C(=O)N[C@@H](CC(C)C)C(=O)N[C@H](C(=O)N[C@@H](CCCNC(=N)N)C(=O)N[C@@H](CCC(N)=O)C(=O)N[C@@H](CCCNC(=N)N)C(=O)N[C@@H](Cc1ccc(O)cc1)C(N)=O)[C@@H](C)O)C(C)C [Compound 241, N{alpha-4}-(3-methylbutanoyl)-N{epsilon-7}-[2-(2-{2-[2-(2-{2-[(4S)-4-carboxy-4-(17-carboxyheptadecanamido)butanamido]ethoxy}ethoxy)acetamido]ethoxy}ethoxy)acetamido]-[4A,7K,9E,11E,17I,18Q,22V,28Y,30W,31L]hPYY (4-36)] | 45 % vehicle
4 | 1.84 nM |  |  |  |  | CC(C)CC(=O)N[C@@H](C)C(=O)N1CCC[C@H]1C(=O)N[C@@H](CCC(=O)O)C(=O)N[C@@H](CCCCNC(=O)COCCOCCNC(=O)COCCOCCNC(=O)CC[C@H](NC(=O)CCCCCCCCCCCCCCCCC(=O)O)C(=O)O)C(=O)N1CCC[C@H]1C(=O)N[C@@H](CCC(=O)O)C(=O)N[C@@H](CCC(=O)O)C(=O)N[C@@H](CC(=O)O)C(=O)N[C@@H](C)C(=O)N[C@@H](CCC(=O)O)C(=O)N1CCC[C@H]1C(=O)N[C@@H](C)C(=O)N[C@@H](CCC(=O)O)C(=O)N[C@@H](CC(C)C)C(=O)N[C@@H](CCC(N)=O)C(=O)N[C@@H](CCCNC(=N)N)C(=O)N[C@@H](Cc1ccc(O)cc1)C(=O)N[C@@H](Cc1ccc(O)cc1)C(=O)N[C@H](C(=O)N[C@@H](CO)C(=O)N[C@@H](CC(C)C)C(=O)N[C@@H](CCCNC(=N)N)C(=O)N[C@@H](Cc1c[nH]cn1)C(=O)N[C@@H](Cc1ccc(O)cc1)C(=O)N[C@@H](Cc1ccc(O)cc1)C(=O)N[C@@H](CC(N)=O)C(=O)N[C@@H](Cc1c[nH]c2ccccc12)C(=O)N[C@@H](CC(C)C)C(=O)N[C@H](C(=O)N[C@@H](CCCNC(=N)N)C(=O)N[C@@H](CCC(N)=O)C(=O)N[C@@H](CCCNC(=N)N)C(=O)N[C@@H](Cc1ccc(O)cc1)C(N)=O)[C@@H](C)O)C(C)C [Compound 244, N{alpha-4}-(3-methylbutanoyl)-N{epsilon-7}-[2-(2-{2-[2-(2-{2-[(4S)-4-carboxy-4-(17-carboxyheptadecanamido)butanamido]ethoxy}ethoxy)acetamido]ethoxy}ethoxy)acetamido]-[4A,7K,9E,13E,15A,18Q,22V,28Y,30W,31L]hPYY (4-36)] | 49 % vehicle
